What was measured:
[1] = nude mice bearing SMS-KCNR xenografts; ketoconazole 50 mg/kg/day, nine doses, starting two days prior to fenretinide 180 mg/kg/day, five doses
[2] = Effect of various dosages of ketoconazole on fenretinide levels in mouse plasma (Example 3, HPLC); type: in vivo; conditions: NOD/SCID mice; ketoconazole 37, 75 or 150 mg/kg/day, nine doses, starting two days prior to fenretinide 180 mg/kg/day, five doses; all dose levels, P<0.05
From the text: Animals were sacrificed four hours after the last drug dosing and levels of fenretinide measured in the blood plasma by a HPLC methodology.

in vivo = conditions: nude (nu/nu), mouse, 180 mg/kg/day
Experimental: The fluconazole dose approximately corresponded to a human equivalent dose of 100 mg/day for a 70 kg human. […] These doses are within the standard range of human treatment doses for both of these antifungal agents. Animals were sacrificed four hours after the last drug dosing and levels of fenretinide measured in the plasma by a HPLC methodology.

effect on fenretinide levels in tumor tissue [1]	effect on mean fenretinide level in plasma compared to controls [2]	concentration at 4 h (in vivo) [µM]	SMILES
increased	significantly increased	–	CC(=O)N1CCN(c2ccc(OCC3COC(Cn4ccnc4)(c4ccc(Cl)cc4Cl)O3)cc2)CC1 (stereo not drawn) [ketoconazole]
–	–	12.6	CC1=C(/C=C/C(C)=C/C=C/C(C)=C/C(=O)Nc2ccc(O)cc2)C(C)(C)CCC1 [fenretinide, N-(4-hydrophenyl) retinamide]

Source: US20140329832A1, “METABOLIC DEGRADATION INHIBITORS FOR ANTI-HYPERPROLIFERATIVE AGENTS” (CHILDRENS HOSPITAL LOS ANGELES, priority 2007, published 2014)
